≈ marks a conversion by molar mass, not a printed value.
Key:
Assay type in all cases: cell-based
S. aureus ATCC 13709 = test: MIC, antibacterial potency, S. aureus; settings: S. aureus (SA); in µg/mL
S. pneumoniae ATCC 51916 = test: MIC, S. pneumoniae; settings: S. pneumoniae (Spn52); in µg/mL
E. coli 8 ATCC 25922 = test: MIC, E. coli 8 (wt); settings: E. coli 8 (EC8)

Structure (SMILES)	MIC, SA (S. aureus ATCC 13709)	MIC Spn52 (S. pneumoniae ATCC 51916)	MIC EC8 (E. coli 8 ATCC 25922)
CCc1[nH]c2nc(Sc3cnc4c(=N)n(CCCN(C)C)c(C)nc4c3)nc(N3CC[C@@H](N)C3)c2c1Cl [700,923]	16	8	64 µg/mL (≈ 118 µM)
CCc1[nH]c2nc(Sc3ccc4[nH]cc(C(=O)O)c(=O)c4c3)nc(N3CC[C@@H](N)C3)c2c1Cl [700,920]	>64	>64	> 64 µg/mL
CCc1[nH]c2nc(Sc3cnc4c(=N)n(CC5OCCO5)c(C)nc4c3)nc(N3CC[C@@H](N)C3)c2c1Cl [700,906]	2	4	> 64 µg/mL
CCc1[nH]c2nc(Sc3ccc4cc5c([n+]([O-])c4c3)CCNC5)nc(N3CC4C(N)C4C3)c2c1Cl (stereo not drawn) [700,972]	<=0.5	1	4 µg/mL (≈ 7.87 µM)
CCc1[nH]c2nc(Sc3cnc4nccnc4c3)nc(N3CC4NC4C3)c2c1Cl (stereo not drawn) [701,118]	4	2	64 µg/mL (≈ 151 µM)
CCc1[nH]c2nc(Oc3cncc(C#N)c3)nc(Oc3cccc(OC)c3)c2c1Br [700,966]	<=0.5	<=0.5	> 64 µg/mL
CCc1[nH]c2nc(Sc3cnc(N)nc3)nc(N3CC4C(C3)C4(N)C(N)=O)c2c1Cl (stereo not drawn) [700,968]	2	>64	> 64 µg/mL
CCc1[nH]c2nc(Sc3cc(C(=O)NOC)c4ncccc4c3)nc(N3CC[C@@H](N)C3)c2c1Cl [701,015]	<=0.5	2	> 64 µg/mL
CCc1[nH]c2nc(Oc3cncc(OC)c3)nc(N3CC(O)C3)c2c1Cl [700,934]	4	16	> 64 µg/mL
NC1CN(c2ncnc3cc(Sc4nc(N5CC[C@@H](N)C5)c5c(Cl)c(C6CC6)[nH]c5n4)ccc23)C1 [700,995]	>64	>64	64 µg/mL (≈ 126 µM)
CCc1[nH]c2nc(Oc3ccc4nccnc4c3)nc(Oc3cncc(C#N)c3)c2c1Br [700,987]	<=0.5	<=0.5	> 64 µg/mL
CCc1[nH]c2nc(Oc3cncc(C#N)c3)nc(N3CC4C(C3)C4(N)C(N)=O)c2c1Cl (stereo not drawn) [700,981]	16	16	> 32 µg/mL
CCc1[nH]c2nc(Sc3ccc4c(N5CC(CN)C5)cc(C(F)(F)F)nc4c3)nc(N3CC[C@@H](N)C3)c2c1Cl [700,917]	4	4	8 µg/mL (≈ 13.9 µM)
CCc1[nH]c2nc(Oc3cncnc3)nc(N3CC(N)C3)c2c1Cl [700,907]	8	16	64 µg/mL (≈ 185 µM)
CCc1[nH]c2nc(Oc3cncc(C#N)c3)nc(Oc3cncc(OC)c3)c2c1Br [700,945]	<=0.5	<=0.5	> 64 µg/mL
CCc1[nH]c2nc(Sc3ccc4c(-n5ccnc5)cc(C)nc4c3)nc(N3CC[C@@H](N)C3)c2c1Cl [700,913]	2	2	> 64 µg/mL
CCc1[nH]c2nc(Oc3ccc4sc(C)nc4c3)nc(Oc3cccc(C#N)c3)c2c1Br [700,949]	<=0.5	4	> 64 µg/mL
CCc1[nH]c2nc(Oc3cccc(C#N)c3)nc(C(C)(NO)NO)c2c1Cl [700,954]	>32	>32	> 32 µg/mL
CCc1[nH]c2nc(Oc3ccc4nccnc4c3)nc(Oc3cncnc3)c2c1Br [700,965]	<=0.5	<=0.5	64 µg/mL (≈ 138 µM)
CCc1[nH]c2nc(Oc3ccc4nccnc4c3)nc(N3CC4C(C3)C4(N)C(N)=O)c2c1Cl (stereo not drawn) [700,989]	<=0.5	<=0.5	> 64 µg/mL
CCc1[nH]c2nc(Sc3ccc4cccnc4c3)nc(N3CC[C@@H](N)C3)c2c1Cl [700,991]	1	2	32 µg/mL (≈ 75.3 µM)
CCc1[nH]c2nc(Sc3ccc4nc(N5CC(N)C5)cnc4c3)nc(N3CC[C@@H](N)C3)c2c1Cl [701,014]	4	8	32 µg/mL (≈ 64.5 µM)
CCc1[nH]c2nc(Sc3cnc4cccnc4c3)nc(N3C[C@@H]4NCCO[C@@H]4C3)c2c1Cl [700,959]	2	2	> 64 µg/mL

The next lines start with the values.

MIC, SA (S. aureus ATCC 13709)	MIC Spn52 (S. pneumoniae ATCC 51916)	MIC EC8 (E. coli 8 ATCC 25922)	Structure (SMILES)
<=0.5	<=0.5	> 64 µg/mL	CCc1[nH]c2nc(Oc3ccc[n+]([O-])c3)nc(Oc3ccc4nccnc4c3)c2c1Br [701,091]
<=0.5	<=0.5	> 64 µg/mL	CCc1[nH]c2nc(Oc3cccc(S(C)(=O)=O)c3)nc(Oc3ccc4nccnc4c3)c2c1Br [701,095]
4	8	64 µg/mL (≈ 157 µM)	CCc1[nH]c2nc(Oc3ccc4cccnc4c3)nc(N3CC[C@@H](N)C3)c2c1Cl [701,070]
16	32	> 64 µg/mL	CCc1[nH]c2nc(Sc3cncc(S(=O)(=O)N(C)C)c3)nc(N3CC[C@@H](N)C3)c2c1Cl [701,180]
>64	>64	> 64 µg/mL	CCc1[nH]c2nc(Sc3ccc4c(N5CC[C@@H](N)C5)cc(=O)oc4c3)nc(N3CC[C@@H](N)C3)c2c1Cl [701,184]
<=0.5	<=0.5	8 µg/mL (≈ 18.3 µM)	CCc1[nH]c2nc(Sc3ccc4cncnc4c3)nc(N3CC4C(N)C4C3)c2c1Cl (stereo not drawn) [701,069]
8	8	> 64 µg/mL	CCc1[nH]c2nc(Sc3ccc4[nH]nnc4c3)nc(N3CC[C@@H](N)C3)c2c1Cl [701,090]
<=0.5	2	32 µg/mL (≈ 68.2 µM)	CCc1[nH]c2nc(Sc3cnc4nccnc4c3)nc(N3C[C@@H]4[C@H](C3)[C@@]4(N)CO)c2c1Cl [701,144]
<=0.5	<=0.5	> 64 µg/mL	CCc1[nH]c2nc(Oc3ccc4c(c3)ncc[n+]4[O-])nc(Oc3ccc4nccnc4c3)c2c1Br [701,059]
8	32	> 64 µg/mL	CCc1[nH]c2nc(Oc3cncnc3)nc(Oc3ccc4ncnc(N5CC(N)C5)c4c3)c2c1Cl [701,296]
<=0.5	16	4 µg/mL (≈ 8.32 µM)	CCc1[nH]c2nc(Sc3ccc4cc5c(nc4c3)CCOC5)nc(N3CC[C@@H](N)C3)c2c1Cl [701,082]
8	4	8 µg/mL (≈ 18.2 µM)	NC1CN(c2nc(Sc3cnc4ccc[n+]([O-])c4c3)nc3[nH]c(C4CC4)c(Cl)c23)C1 [701,074]
8	32	16 µg/mL (≈ 35.2 µM)	CCc1[nH]c2nc(Sc3cnc4ccc[n+]([O-])c4c3)nc(N3CC4(CNC4)C3)c2c1Cl [701,038]
>64	>64	> 64 µg/mL	CCc1[nH]c2nc(Sc3cnc4cccnc4c3)nc(N3C[C@H](N)[C@H](C(=O)N4CC[C@@H](N)C4)C3)c2c1Cl [701,023]
<=0.5	1	> 64 µg/mL	CCc1[nH]c2nc(Oc3ccc4cccnc4c3)nc(Oc3ccc4cccnc4c3)c2c1Br [701,054]
2	4	> 64 µg/mL	CCc1[nH]c2nc(Sc3cnc(N4CCC4)c([N+](=O)[O-])c3)nc(N3CC[C@@H](N)C3)c2c1Cl [701,089]
32	32	> 64 µg/mL	CCc1[nH]c2nc(Oc3ccc4nccnc4c3)nc(N3CC(CN(C)C)C3)c2c1Cl [701,113]
16	>64	> 64 µg/mL	CCc1[nH]c2nc(Sc3ccc4cc(C(=O)N5CC(O)C5)c(C)[n+]([O-])c4c3)nc(N3CC[C@@H](N)C3)c2c1Cl [701,048]
<=0.5	<=0.5	> 64 µg/mL	CCc1[nH]c2nc(Oc3cncnc3)nc(Oc3cc(O)cc(C#N)c3)c2c1Cl [701,264]
2	16	64 µg/mL (≈ 143 µM)	CCc1[nH]c2nc(Sc3cnc4ncn(C)c(=O)c4c3)nc(N3CC4C(N)C4C3)c2c1C (stereo not drawn) [701,239]
<=0.5	<=0.5	16 µg/mL (≈ 31 µM)	CCc1[nH]c2nc(Oc3cncnc3)nc(Oc3cc(Cl)cc(N4CC(N)C4)c3)c2c1Br [701,273]
>64	>64	> 64 µg/mL	CCc1[nH]c2nc(Oc3cncc(C(N)=O)c3)nc(N3CC4C(N)C4C3)c2c1Cl (stereo not drawn) [701,278]
<=0.5	4	32 µg/mL (≈ 67.9 µM)	CCc1[nH]c2nc(Sc3ccc4c(OC)cc[n+]([O-])c4c3)nc(N3CC[C@@H](N)C3)c2c1Cl [701,040]
<=0.5	<=0.5	4 µg/mL (≈ 9.48 µM)	CCc1[nH]c2nc(Oc3cnc4cccnc4c3)nc(N3CC4C(N)C4C3)c2c1Cl (stereo not drawn) [701,126]
1	4	> 64 µg/mL	CCc1[nH]c2nc(Oc3cccc(C#N)c3)nc(Oc3cncnc3)c2c1Br [701,253]
<=0.5	<=0.5	8 µg/mL (≈ 18.8 µM)	CCc1[nH]c2nc(Sc3ccc4cncnc4c3)nc(N3CC[C@@H](N)C3)c2c1Cl [701,049]
4	4	> 64 µg/mL	CCc1[nH]c2nc(Oc3cnc4c(c3)ncn4C)nc(N3CC[C@@H](NC(C)=O)C3)c2c1Cl [701,034]
2	4	> 64 µg/mL	CCc1[nH]c2nc(Oc3cncc(C(N)=O)c3)nc(C)c2c1Cl [701,231]
>64	>64	> 64 µg/mL	CCc1[nH]c2nc(Oc3ccc4cccnc4c3)nc(N3CC4C(N)C4C3)c2c1Cl (stereo not drawn) [701,055]
<=0.5	<=0.5	> 32 µg/mL	CCc1[nH]c2nc(Oc3ccc4c(c3)ncc[n+]4[O-])nc(Oc3ccc4c(c3)ncc[n+]4[O-])c2c1Br [701,058]

Source: US10047105B2, “Gyrase inhibitors” (Merck Sharp & Dohme Corp., priority 2009, dated 2018)
